Here are results for one substance from patent publication US11932839B2, “Microengineered tissue barrier system” (Georgia Tech Research Corporation, priority 2019, dated 2024).

The test system of this test is human astrocytes (HA). Kind of test: LCN2 expression (qRT-PCR) in human astrocytes stimulated with IL-1β. The test is classed as cell-based. Particulars: 1 ng/mL or 10 ng/mL IL-1β, 20 h. The procedure:
In order to compare the structure and function of human astrocytes (HA) in 2D and 3D cultures, HAs were seeded at a density of 1×10^6 cells/mL in Matrigel (Growth factor-reduced; Corning, NY, USA) coated 24-wells and in 3D Matrigel (5 mg/mL). After 1 day of culture, cells were stimulated with 1 ng/mL or 10 ng/mL of recombinant human interleukin-1-beta (IL-1β; Gibco, Grand Island, NY, USA) and incubated for another 20 h for analysis.
The gene expression level of the reactive gliosis marker in 2D or 3D cultured human astrocytes (HA) was confirmed through qRT-PCR analysis. To analyze glial reactivity of HA in 2D and 3D culture system (n=4), standard qRT-PCR was performed with a StepOnePlus Real-Time PCR system (Applied Biosystems) using TaqMan Fast Universal PCR Master Mix (Applied Biosystems). The target genes were assessed using commercially available primers, and the primers used in the experiment are shown in Table 2 below.

“IL-1β: recombinant human interleukin-1-beta, an inflammatory cytokine”: the “expression level of LCN2” value by setting is: (HA inside 3D Matrigel, FIG. 41) “dose-dependently controlled”; (HA on 2D Matrigel-coated surface, FIG. 40) “dose-dependently controlled”.
